Common to all, as to assay: KINOMEscan competition binding
Experiment [1] addresses CSK (Homo sapiens, UniProt P41240). The note with it: read-out: %Inh CSK.
For experiment [2], the target named is GRK4 (Homo sapiens, UniProt P32298). Particulars: read-out: %Inh GRK4.
Experiment [3] addresses HIPK3 (Homo sapiens, UniProt Q9H422). Particulars: read-out: %Inh HIPK3.
Experiment [4] addresses FES (Homo sapiens, UniProt P07332). Particulars: read-out: %Inh FES.
Experiment [5] has as its target T1, CAMK4 (Homo sapiens, UniProt Q16566).
T1 sequence (Q16566 1-473): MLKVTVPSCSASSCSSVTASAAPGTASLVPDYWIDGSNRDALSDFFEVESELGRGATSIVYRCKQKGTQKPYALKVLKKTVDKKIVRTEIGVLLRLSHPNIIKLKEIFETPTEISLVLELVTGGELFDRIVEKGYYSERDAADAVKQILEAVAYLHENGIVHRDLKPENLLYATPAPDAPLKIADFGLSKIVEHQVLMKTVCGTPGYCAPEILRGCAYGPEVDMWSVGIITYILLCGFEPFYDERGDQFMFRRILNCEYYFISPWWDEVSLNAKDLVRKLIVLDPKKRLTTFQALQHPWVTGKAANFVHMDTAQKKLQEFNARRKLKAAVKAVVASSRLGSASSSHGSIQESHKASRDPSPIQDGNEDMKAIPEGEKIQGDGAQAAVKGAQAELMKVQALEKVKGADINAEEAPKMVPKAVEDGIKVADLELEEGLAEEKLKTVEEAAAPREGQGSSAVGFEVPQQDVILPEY
The note with it: read-out: %Inh CAMK4.

Experiment [6] has as its target BLK (Homo sapiens, UniProt P51451). Particulars: read-out: %Inh BLK.
The target of experiment [7] is MAP3K1 (Homo sapiens, UniProt Q13233). The note with it: read-out: %Inh MAP3K1.
Experiment [8] concerns the target T2, HIPK4 (Homo sapiens, UniProt Q8NE63).
T2 sequence (Q8NE63 1-616): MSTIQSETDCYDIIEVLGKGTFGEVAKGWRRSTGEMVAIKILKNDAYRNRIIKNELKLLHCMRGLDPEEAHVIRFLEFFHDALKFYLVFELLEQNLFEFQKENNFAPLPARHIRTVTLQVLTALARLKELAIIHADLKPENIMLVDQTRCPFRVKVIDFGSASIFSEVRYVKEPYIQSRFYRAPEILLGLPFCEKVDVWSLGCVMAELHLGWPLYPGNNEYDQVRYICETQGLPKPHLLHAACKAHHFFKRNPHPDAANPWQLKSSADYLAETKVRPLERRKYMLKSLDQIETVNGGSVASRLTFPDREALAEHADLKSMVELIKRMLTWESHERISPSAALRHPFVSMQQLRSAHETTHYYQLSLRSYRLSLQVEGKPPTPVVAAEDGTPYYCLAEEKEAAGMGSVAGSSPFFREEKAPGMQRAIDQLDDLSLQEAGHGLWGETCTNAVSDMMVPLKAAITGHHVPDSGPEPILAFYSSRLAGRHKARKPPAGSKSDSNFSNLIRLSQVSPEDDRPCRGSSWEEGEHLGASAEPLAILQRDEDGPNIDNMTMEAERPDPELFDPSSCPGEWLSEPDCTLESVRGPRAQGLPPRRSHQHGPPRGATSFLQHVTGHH
Particulars: read-out: %Inh HIPK4.

In experiment [9] the target is LCK (Homo sapiens, UniProt P06239). Particulars: read-out: %Inh LCK.
Experiment [10] deals with JAK3(JH1domain-catalytic) (Homo sapiens, UniProt P52333). The note with it: read-out: %Inh JAK3(JH1domain-catalytic).

Each structure is given as a SMILES string.

Chain of HIPK3 (Q9H422 whole entry): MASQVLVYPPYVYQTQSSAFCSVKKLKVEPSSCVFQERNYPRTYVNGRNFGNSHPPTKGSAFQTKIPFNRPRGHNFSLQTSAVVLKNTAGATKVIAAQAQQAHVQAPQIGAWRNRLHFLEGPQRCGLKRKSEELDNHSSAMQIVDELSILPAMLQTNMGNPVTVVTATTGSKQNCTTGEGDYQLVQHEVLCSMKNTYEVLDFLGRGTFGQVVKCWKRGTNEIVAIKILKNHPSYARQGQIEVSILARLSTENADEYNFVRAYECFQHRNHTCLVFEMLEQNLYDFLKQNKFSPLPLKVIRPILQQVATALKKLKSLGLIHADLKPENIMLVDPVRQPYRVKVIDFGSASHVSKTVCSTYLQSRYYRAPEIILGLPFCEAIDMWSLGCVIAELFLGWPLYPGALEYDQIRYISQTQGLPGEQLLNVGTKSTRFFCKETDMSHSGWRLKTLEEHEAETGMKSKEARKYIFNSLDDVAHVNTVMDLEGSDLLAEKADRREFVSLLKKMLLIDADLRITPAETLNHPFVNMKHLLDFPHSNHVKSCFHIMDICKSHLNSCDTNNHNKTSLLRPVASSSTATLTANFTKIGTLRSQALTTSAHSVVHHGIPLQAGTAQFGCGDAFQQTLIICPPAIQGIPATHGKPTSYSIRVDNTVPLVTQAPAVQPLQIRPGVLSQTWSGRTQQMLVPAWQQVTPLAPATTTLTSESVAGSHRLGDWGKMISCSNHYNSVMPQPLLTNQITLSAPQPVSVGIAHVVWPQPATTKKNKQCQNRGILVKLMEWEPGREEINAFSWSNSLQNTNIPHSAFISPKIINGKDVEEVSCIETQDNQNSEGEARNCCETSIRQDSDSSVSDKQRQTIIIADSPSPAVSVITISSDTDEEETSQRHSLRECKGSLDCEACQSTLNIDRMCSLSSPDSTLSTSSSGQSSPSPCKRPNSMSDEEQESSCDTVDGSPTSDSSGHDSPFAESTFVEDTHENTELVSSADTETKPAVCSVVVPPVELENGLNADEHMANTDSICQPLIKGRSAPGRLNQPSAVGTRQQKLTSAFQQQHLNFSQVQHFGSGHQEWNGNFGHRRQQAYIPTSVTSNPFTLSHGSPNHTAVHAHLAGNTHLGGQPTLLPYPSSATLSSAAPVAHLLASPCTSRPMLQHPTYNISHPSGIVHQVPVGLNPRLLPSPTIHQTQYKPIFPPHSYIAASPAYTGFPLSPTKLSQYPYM
Chain of MAP3K1 (Q13233 whole entry): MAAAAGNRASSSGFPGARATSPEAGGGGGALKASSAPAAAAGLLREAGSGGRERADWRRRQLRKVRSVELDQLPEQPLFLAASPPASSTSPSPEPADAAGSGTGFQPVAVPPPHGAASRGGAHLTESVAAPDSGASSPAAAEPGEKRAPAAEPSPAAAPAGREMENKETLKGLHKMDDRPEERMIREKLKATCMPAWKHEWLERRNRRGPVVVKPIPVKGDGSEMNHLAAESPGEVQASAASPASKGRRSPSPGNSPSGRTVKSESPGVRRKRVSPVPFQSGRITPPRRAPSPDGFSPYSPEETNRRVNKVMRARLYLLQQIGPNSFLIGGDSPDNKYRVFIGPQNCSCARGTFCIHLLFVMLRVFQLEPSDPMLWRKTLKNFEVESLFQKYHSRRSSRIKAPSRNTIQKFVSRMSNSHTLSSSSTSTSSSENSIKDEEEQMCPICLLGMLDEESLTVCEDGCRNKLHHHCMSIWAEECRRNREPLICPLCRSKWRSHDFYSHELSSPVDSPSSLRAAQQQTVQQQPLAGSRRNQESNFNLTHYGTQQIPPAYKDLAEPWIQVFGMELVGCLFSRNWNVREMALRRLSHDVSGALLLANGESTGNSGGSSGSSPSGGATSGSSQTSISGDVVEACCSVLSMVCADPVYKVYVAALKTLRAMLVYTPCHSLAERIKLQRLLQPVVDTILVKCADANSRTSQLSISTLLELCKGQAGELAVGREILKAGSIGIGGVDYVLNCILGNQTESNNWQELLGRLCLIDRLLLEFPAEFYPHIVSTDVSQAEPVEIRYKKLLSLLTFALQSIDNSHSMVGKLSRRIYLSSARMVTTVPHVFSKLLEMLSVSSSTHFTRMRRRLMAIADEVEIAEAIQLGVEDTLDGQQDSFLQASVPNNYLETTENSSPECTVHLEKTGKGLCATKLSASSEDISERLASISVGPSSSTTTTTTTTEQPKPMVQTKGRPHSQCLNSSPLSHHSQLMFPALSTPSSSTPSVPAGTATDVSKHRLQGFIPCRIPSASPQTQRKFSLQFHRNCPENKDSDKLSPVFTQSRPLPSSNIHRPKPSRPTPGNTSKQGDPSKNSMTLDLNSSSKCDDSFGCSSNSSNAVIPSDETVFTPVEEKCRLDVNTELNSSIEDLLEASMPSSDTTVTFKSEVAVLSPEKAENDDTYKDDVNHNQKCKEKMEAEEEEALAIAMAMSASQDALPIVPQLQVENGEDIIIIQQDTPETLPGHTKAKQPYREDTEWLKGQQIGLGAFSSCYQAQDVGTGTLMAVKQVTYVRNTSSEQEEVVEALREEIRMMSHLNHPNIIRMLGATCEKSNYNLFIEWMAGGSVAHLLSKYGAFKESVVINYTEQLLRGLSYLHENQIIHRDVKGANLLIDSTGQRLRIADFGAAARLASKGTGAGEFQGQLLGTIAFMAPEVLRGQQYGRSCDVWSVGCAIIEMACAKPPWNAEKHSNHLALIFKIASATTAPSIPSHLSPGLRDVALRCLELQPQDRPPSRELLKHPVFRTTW
Chain of GRK4 (P32298 whole entry): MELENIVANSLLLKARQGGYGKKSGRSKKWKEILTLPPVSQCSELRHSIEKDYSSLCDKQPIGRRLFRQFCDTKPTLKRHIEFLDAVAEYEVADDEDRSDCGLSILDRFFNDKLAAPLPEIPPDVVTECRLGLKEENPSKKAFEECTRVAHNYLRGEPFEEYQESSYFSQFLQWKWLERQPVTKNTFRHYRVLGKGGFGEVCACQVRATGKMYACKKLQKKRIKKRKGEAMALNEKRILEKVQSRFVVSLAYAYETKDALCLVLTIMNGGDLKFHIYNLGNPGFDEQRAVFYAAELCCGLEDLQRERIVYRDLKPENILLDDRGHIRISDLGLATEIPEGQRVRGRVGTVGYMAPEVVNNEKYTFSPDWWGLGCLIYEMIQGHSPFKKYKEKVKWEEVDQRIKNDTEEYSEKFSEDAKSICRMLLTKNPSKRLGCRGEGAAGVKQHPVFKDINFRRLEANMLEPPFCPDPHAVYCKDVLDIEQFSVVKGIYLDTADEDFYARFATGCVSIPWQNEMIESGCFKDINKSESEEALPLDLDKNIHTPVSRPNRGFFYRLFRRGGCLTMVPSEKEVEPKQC
Chain of FES (P07332 whole entry): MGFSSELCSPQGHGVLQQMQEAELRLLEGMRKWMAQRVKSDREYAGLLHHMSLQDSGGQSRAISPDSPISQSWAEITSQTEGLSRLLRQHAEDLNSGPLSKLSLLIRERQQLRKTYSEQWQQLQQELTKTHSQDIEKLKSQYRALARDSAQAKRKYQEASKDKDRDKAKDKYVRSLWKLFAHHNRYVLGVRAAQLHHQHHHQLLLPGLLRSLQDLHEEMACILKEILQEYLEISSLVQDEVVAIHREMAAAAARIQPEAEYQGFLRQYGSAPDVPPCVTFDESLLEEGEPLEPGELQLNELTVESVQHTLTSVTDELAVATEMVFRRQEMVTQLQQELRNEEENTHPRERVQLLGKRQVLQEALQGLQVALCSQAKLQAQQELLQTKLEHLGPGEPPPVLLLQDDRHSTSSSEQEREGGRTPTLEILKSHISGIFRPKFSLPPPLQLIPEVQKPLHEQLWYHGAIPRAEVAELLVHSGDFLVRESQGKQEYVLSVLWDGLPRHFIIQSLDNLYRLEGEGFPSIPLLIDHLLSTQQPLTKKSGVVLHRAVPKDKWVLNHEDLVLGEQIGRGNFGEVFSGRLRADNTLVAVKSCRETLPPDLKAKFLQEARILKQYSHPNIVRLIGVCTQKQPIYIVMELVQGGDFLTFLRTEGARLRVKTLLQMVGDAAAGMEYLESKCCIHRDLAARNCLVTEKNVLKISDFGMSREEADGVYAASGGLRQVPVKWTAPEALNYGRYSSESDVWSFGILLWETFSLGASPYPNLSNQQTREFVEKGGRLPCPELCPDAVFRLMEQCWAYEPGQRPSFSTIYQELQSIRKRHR
Chain of JAK3(JH1domain-catalytic) (P52333 813-1124 limits assumed): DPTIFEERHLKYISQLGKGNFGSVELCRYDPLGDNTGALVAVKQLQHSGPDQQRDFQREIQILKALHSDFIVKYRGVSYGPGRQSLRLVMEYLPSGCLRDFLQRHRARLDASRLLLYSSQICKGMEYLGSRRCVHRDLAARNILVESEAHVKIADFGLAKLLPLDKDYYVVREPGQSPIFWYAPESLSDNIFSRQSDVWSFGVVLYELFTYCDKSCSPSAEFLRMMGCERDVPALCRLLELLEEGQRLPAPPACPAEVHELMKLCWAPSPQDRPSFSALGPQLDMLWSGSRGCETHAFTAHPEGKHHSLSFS
Chain of CSK (P41240 whole entry): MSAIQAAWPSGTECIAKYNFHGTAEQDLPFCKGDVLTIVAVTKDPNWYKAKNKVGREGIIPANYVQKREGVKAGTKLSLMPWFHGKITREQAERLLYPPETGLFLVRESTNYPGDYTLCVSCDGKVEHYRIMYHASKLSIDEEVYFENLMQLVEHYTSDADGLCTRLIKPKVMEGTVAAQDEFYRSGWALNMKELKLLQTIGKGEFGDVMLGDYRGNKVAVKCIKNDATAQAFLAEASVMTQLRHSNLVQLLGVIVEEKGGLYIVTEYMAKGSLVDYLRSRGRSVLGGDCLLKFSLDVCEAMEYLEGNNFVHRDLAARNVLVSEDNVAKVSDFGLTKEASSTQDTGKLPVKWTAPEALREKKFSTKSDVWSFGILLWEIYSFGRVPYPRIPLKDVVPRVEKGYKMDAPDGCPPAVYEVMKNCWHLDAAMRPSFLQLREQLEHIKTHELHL

`COc1cccc(OC)c1C(=O)Nc1cccc(-c2nn3ccccc3c2-c2ccnc(Nc3cccc(F)c3)n2)c1` [UNC10225310A]: the inhibition at 1 µM turned out to be 18% in experiment [1]; 0% in experiment [2]; 0% in experiment [3]; 20% in experiment [4]; 0% in [5]; 41% in experiment [6]. The inhibition at 1 µM in [7] was 0%; in [8], 84%; in [9] it was 24%; in experiment [10] it was 0%.

Consider `O=c1cc(N2CCOCC2)nc2n(Cc3cccc(Cl)c3Cl)c(C3CC3)nn12` [UNC10225469A], for which the inhibition at 1 µM in experiment [1] worked out at 8%; in [2], 0%; in [3], 16%; in [4] it was 15%; in experiment [5] it was 5%; in [6] it was 0%. Also, the inhibition at 1 µM in experiment [7] was determined as 14%; in experiment [8], 0%; in experiment [9], 23%; in experiment [10] it was 0%.

Consider `Cn1cc(-c2cnc(N)c3c(-c4ccc5c(c4)CCN5C(=O)Cc4ccccc4)csc23)cn1` [UNC10225012A], for which the inhibition at 1 µM was 20% in experiment [1]; 7% in experiment [2]; 7% in [3]; 14% in experiment [4]; 0% in [5]; 93% in experiment [6]. In addition, the inhibition at 1 µM in experiment [7] turned out to be 4%; in experiment [8], 0%; in experiment [9], 93.8%; in experiment [10] it was 0%.

As for `CS(=O)(=O)Cc1ccc(Nc2nccc(-c3c(-c4cccc(NC(=O)C5CCCCC5)c4)nn4ncccc34)n2)cc1` [UNC10225159A], the inhibition at 1 µM in [1] stood at 10%; in experiment [2], 0%; in [3], 23%; in [4] it was 0%; in [5], 0%; in experiment [6], 0%. Also, the inhibition at 1 µM in experiment [7] is 30%; in [8], 0%; in [9], 23%; in experiment [10], 43%.

`Cc1ccc(NC(=O)Nc2cccc(C(F)(F)F)c2)cc1` [UNC10225187A]: the inhibition at 1 µM in [1] amounted to 28%; in [2] it was 0%; in [3], 0%; in [4], 0%; in [5], 5%; in experiment [6] it was 0%. The inhibition at 1 µM was determined as 0% in [7], 0% in [8], 6% in [9] and 0% in experiment [10].
